Measurements: patent US20190008850A1, “METHOD OF TREATING SCHIZOPHRENIA” (priority 2015, published 2019)
Counter-ions that a name gives are not always drawn.

System: individuals with schizophrenia
Assay: Therapeutic administration of dextromethorphan in schizophrenia (summary statement)
Type: in vivo, human

`COc1ccc2c(c1)[C@]13CCCC[C@@H]1[C@H](C2)N(C)CC3` [dextromethorphan, morphinan, 3-methoxy-17-methyl-, (9a, 13a, 14a)-hydrobromide monohydrate] was tested, and the progression of schizophrenia (administered at first break) was “mitigated the progression of schizophrenia, and in some cases, reversed the disorder”, the “positive symptoms, in particular expressions of hostility” value (in vivo) was “appears to also reduce some positive symptoms” and the “frequency and intensity of negative symptoms” value (individuals with established schizophrenia diagnoses) was “significantly reduced”. For the same molecule, the “negative symptoms of schizophrenia” value (therapeutic administration) was “substantially reduces”.
